Assay: gradient 5% acetonitrile 3 min, to 50% in 2 min, to 85% in 15 min, held 3 min, 100 µL/min
Settings: column: Zorbax Extend-C18 2.1 x 50 mm; eluents: water / acetonitrile, 0.1% formic acid
Outline: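 Pure standards were analyzed in mixtures of ~100 molecules using HPLC coupled to a quadrupole time-of-flight mass spectrometer, in both positive and negative ionization mode. Separation used a Zorbax Extend-C18 column (2.1 × 50 mm, 1.8 μm) at 100 μL/min, with water and acetonitrile each containing 0.1% formic acid. Dead and dwell volumes were 40 μL and 900 μL, and data were collected over 3 months. Retention time was read from computationally picked adduct peaks, each inspected manually.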

| Structure (SMILES) | RP-LC retention time [s] |
| --- | --- |
| c1ccc2c(c1)CCN(c1nccnc1OC1CCNC1)C2 (stereo not given) | 649 |
| Cn1c(=O)c2cc(C(=O)NCCc3ccncc3)nn2c2ccccc21 | 584 |
| O=S(=O)(c1ccccc1)N1CCCC(c2nc(CCOCC3CC3)no2)C1 (stereo not given) | 924 |
| CCOC(=O)CCc1c(C)nn(-c2cc(N3CCCC3)ncn2)c1C | 868 |
| NS(=O)(=O)c1ccc(CCNCc2ccc(-c3ccc(F)cc3)o2)cc1 | 643 |
| Cc1sc(-c2noc(C3CC3)n2)cc1S(=O)(=O)N1CCC(C(=O)N2CCCCCC2)CC1 | 1050 |
| Cc1ccc(F)cc1-n1cc(C(=O)O)c2ccccc2c1=O | 791 |
| COc1ccc(C2(C(=O)N3CCC4(CC3)c3nccn3-c3ccccc3CN4C)CC2)cc1 | 630 |
| CC1SC(C)C(=O)N(CC(=O)NCc2ccco2)C1=O (stereo not given) | 685 |
| CSc1cccc(NC(=O)Cn2c(=O)cc(-c3nc(C(C)C)no3)c3ccccc32)c1 | 928 |
| O=C(NCCc1csc(C2CCN(C(=O)c3cc(F)ccc3F)CC2)n1)C1CC1 | 699 |
| O=C(Cc1cn2cc(F)ccc2n1)Nc1ccc(Cl)cc1Cl | 666 |
| COc1ccc(-c2nnc(-c3ccccc3)o2)cc1S(=O)(=O)NCC(=O)O | 703 |
| O=C1CCc2cc(NS(=O)(=O)/C=C/c3ccccc3)ccc2N1 | 681 |
| O=C(NCc1csc(-c2cccs2)n1)C1CCN(C(=O)c2cccc(F)c2)CC1 | 772 |
| CCN1CCCC1CNC(=O)c1nnc(-c2ccc(S(=O)(=O)N3CCOCC3)cc2)o1 (stereo not given) | 599 |
| CC1CCN(C(=O)Cc2nnc3cc(-c4nc(C5CC5)no4)ccn23)CC1 | 759 |
| COc1ccc2[nH]cc(CCN3CC(C(=O)N4CCc5ccccc54)CC3=O)c2c1 (stereo not given) | 802 |
| CCOc1ccccc1NC(=O)N1C[C@@H](F)C[C@H]1C(=O)N1CCCCC1 | 772 |
| CCc1noc(NC(C)=O)c1-c1ccc(C)c(S(=O)(=O)Nc2ccc(OC)c(OC)c2)c1 | 840 |
| CCOC(=O)c1cccc(Nc2c(-c3ccc(C)cc3)nc3cnccn23)c1 | 941 |
| COc1cccc(C(=O)NCCN2CCN(c3ccc(Cl)cc3)CC2)c1 | 745 |
| O=C(Nc1ccc(Cl)cc1)c1csc(-c2ccc(N3CCCC3)nc2)n1 | 837 |

| Structure (SMILES) | RP-LC retention time [s] |
| --- | --- |
| COc1cccc(S(=O)(=O)N2CCC(CN3CCCCCC3)CC2)c1 | 642 |
| O=C(Nc1ccc2nc3n(c(=O)c2c1)CCC3)Nc1ccc(F)cc1F | 686 |
| CCc1nc2cc(-c3noc(C4(c5ccc(OC)cc5)CC4)n3)ccc2o1 | 690 |
| CC(C)(C)c1noc(-c2ccc(-n3cnc(C(=O)N4CCSCC4)c3)nc2)n1 | 963 |
| O=C(c1ccc(F)c(F)c1)N1CCN(C(=O)c2nnn3c2COC(c2ccccc2)C3)CC1 (stereo not given) | 876 |
| COc1ccc(NC(=O)N2CCC3(CC2)NC(=O)c2ccccc2O3)c(OC)c1 | 728 |
| COc1cc(=O)oc(/C=C/C=C/C=C/C(C)=C/C2(C)OC(C)C(C)(O)C2O)c1C (stereo not given) | 846 |
| Cc1cccc(-c2noc(CSc3nccn3-c3ccccc3)n2)c1 | 969 |
| Cc1ccc(C)c(S(=O)(=O)N2CC[C@H](n3c(=O)n(C)c4cccnc43)C2)c1 | 892 |
| Cc1cc(C)n(-c2nc(CC(=O)N3CCN(c4ccc(F)cc4)CC3)cs2)n1 | 968 |
| CC(C)c1ccc(S(=O)(=O)N2CCc3c(c(CN4CCCC4)nn3C)C2)cc1 | 721 |
| CN1C(=O)COc2cc(-c3noc(C(=O)NCCCN4CCCC4)n3)ccc21 | 604 |
| CCn1cnc2ccc(-c3noc(COc4ccccc4C)n3)cc21 | 807 |
| C=CC(=O)Nc1cccc(Sc2nc(Nc3ccc(N4CCN(C)CC4)cc3)ncc2Cl)c1 | 754 |
| CCc1ccc(-c2cn3cc(C(=O)NC4CC4)ccc3n2)cc1 | 655 |
| O=C(Nc1ccsc1-c1nnc(C2CC2)o1)c1ccoc1 | 1080 |
| CC(C)c1ccc(N2C(=O)C3N=NN(Cc4nc(-c5ccccc5Cl)no4)C3C2=O)cc1 (stereo not given) | 1100 |
| Nc1nc(SCC(=O)c2ccc3c(c2)OCCO3)n[nH]1 | 574 |
| CCNC(=O)N1CC(Oc2cccc(-c3nc(-c4ccccc4)no3)c2)C1 | 939 |
| CC(=O)Nc1cc2c(cc1Sc1ccccc1Cl)n(C)c(=O)n2C | 781 |
| CCCN1CCCCc2cc(C(=O)NC(C)CC)sc21 (stereo not given) | 1100 |
| O=C(NCc1ccccn1)C1CCN(c2cc(Oc3ccccc3)ncn2)CC1 | 577 |
| Cc1ccc(NC(=O)Cn2nc3c(N4CCN(c5ccccc5C)CC4)nccn3c2=O)cc1 | 1080 |

| Structure (SMILES) | RP-LC retention time [s] |
| --- | --- |
| COC(=O)c1ccc(Cl)cc1NC(=O)N1CCCn2nc(-c3ccncc3)cc2C1 | 715 |
| CC(C)CN(C1CCN(C)CC1)C1CN(C(=O)c2cccs2)C1 | 586 |
| CCNc1nc(C)cc(N2CCN(S(=O)(=O)c3cc(Cl)ccc3Cl)CC2)n1 | 776 |
| Cc1cc(NS(=O)(=O)c2ccc3c(c2)CCCC(=O)N3)ccc1Br | 774 |
| CC1CCC(NC(=O)C2CCN(c3nc4ccccc4[nH]3)CC2)CC1 (stereo not given) | 649 |
| CCN1c2ccccc2C(=O)NC12CCN(C(=O)c1ccccc1F)CC2 | 749 |
| O=C(NCCn1c(CCc2ccccc2)nc2ccccc21)NCc1ccco1 | 656 |
| CS(=O)(=O)c1cccc(C(=O)Nc2nnc(-c3ccno3)o2)c1 | 603 |
| Cn1cnc(S(=O)(=O)N2CCC(C(=O)NC3CCCc4ccccc43)CC2)c1 (stereo not given) | 728 |
| COc1ccc(NC(=O)c2ccc3[nH]c4c(c3c2)CN(C(C)=O)CC4)c(OC)c1 | 690 |
| Cn1cc2nc(SCC(=O)Nc3ccc(Br)cc3)n(CC3CC3)c(=O)c2n1 | 905 |
| Cc1ccc(-c2noc(-c3cccc(S(=O)(=O)N4CCCC4)c3)n2)cc1 | 1280 |
| Cc1ccc(-c2noc(Cn3ccnc3)n2)cc1C | 659 |
| CCCC(=O)NC1CCN(c2ccc(F)cc2)C1=O (stereo not given) | 659 |
| N#Cc1ccc(NS(=O)(=O)c2cccc(-c3nc(-c4ccccc4)no3)c2)cc1 | 1090 |
| Oc1c(C(c2ccccn2)N2CCN(c3ccccc3F)CC2)ccc2cccnc12 (stereo not given) | 567 |
| O=C(COc1cccc(Cl)c1)Nc1nc(-c2ccccc2)cs1 | 1110 |
| CCC(=O)N(CC(=O)N1CCc2sccc2C1COc1ccccc1OC)C(C)C (stereo not given) | 855 |
| O=C(CCS(=O)(=O)c1ccccc1)NCc1cc(-c2ccccc2F)on1 | 742 |
| O=C(NCc1ccc(F)cc1)N1CCN(Cc2nc3cc(-c4ccccc4)ccc3o2)CC1 | 850 |
| O=C(Cc1ccsc1)Nc1ccc2c(N3CCOCC3)ncnc2c1 | 619 |
| Cc1cc(S(=O)(=O)N2CCN(c3cnn4c(C)nnc4c3)CC2)ccc1F | 708 |
| CCc1noc(-c2cccn2Cc2cc(F)cc(F)c2)n1 | 1160 |

| Structure (SMILES) | RP-LC retention time [s] |
| --- | --- |
| CCOC(=O)c1noc2nc(C)nc(NCc3ccccc3OC)c12 | 1100 |
| CCOC(=O)c1[nH]c(C)c(CCC(=O)N2CCCC(C(=O)N3CCCCCC3)C2)c1C (stereo not given) | 800 |
| CCCN1CCCCc2cc(C(=O)NC)sc21 | 861 |
| CC(=O)Nc1ccc(OC[C@](C)(O)C(=O)Nc2ccc([N+](=O)[O-])c(C(F)(F)F)c2)cc1 | 858 |
| COc1cccc(-c2nc(C3CCN(S(=O)(=O)c4ccc(C)cc4)CC3)no2)c1 | 1150 |
| COc1cc(C)c(C)cc1S(=O)(=O)NCC1(CO)CC1 | 704 |
| Cc1ccc(-c2ncccc2CNS(=O)(=O)c2cccc(C#N)c2)cc1 | 691 |
| O=C(c1cncc(Br)c1)N1CCCC(c2nnc(-c3ccccc3)o2)C1 (stereo not given) | 777 |
| O=C1COc2cc(S(=O)(=O)N3CCC(C(=O)N4CCc5ccccc54)CC3)c(Cl)cc2N1 | 844 |
| Cc1noc([C@@H]2CC(F)(F)CN2C(=O)c2nccn2C)n1 | 701 |
| CNC(=O)C1CCCN(c2nc3ncn(CC(=O)Nc4cc(C)cc(C)c4)c(=O)c3s2)C1 (stereo not given) | 694 |
| CCn1c(=O)n(CC)c2cc(S(=O)(=O)c3ccccc3)c(NC(C)=O)cc21 | 715 |
| O=C(N[C@@H]1CN(c2ncccn2)C[C@H]1CO)c1ccc2c(c1)OCO2 | 606 |
| CCCCN(CCCNc1nc(C(=O)OCC)nc2ccccc12)c1ccccc1 | 732 |
| COc1cccc(CNC(=O)C2CCN(c3nnc4c(Cl)cccn34)CC2)c1 | 683 |
| CN(CC1CCOCC1)C(=O)Nc1ccc(Cl)cc1 | 772 |
| O=C(CCc1c(-c2ccc(Cl)cc2)nc2ccccn12)NCc1cccnc1 | 570 |
| O=C(Nc1ccccc1)Nc1c(-c2ccccc2)nc2ccccn12 | 636 |
| CCOc1ccc(N2C(=O)C3N=NN(Cc4nc(-c5cccc(C(F)(F)F)c5)no4)C3C2=O)cc1 (stereo not given) | 1080 |
| CCCNC(=O)C1CCN(c2ccc(SCC(=O)Nc3ccccc3C(=O)OCC)nn2)CC1 | 715 |
| Oc1ccc(-c2csc(Nc3ccccn3)n2)cc1 | 646 |

Source: the METLIN SMRT retention time set (Domingo-Almenara et al. 2019)
